In patent US4645773A, “β-carboline-3-oxadiazolyl derivatives, and their use as psychotropic agents” (Schering Aktiengesellschaft, priority 1984, dated 1987):

Legend:
benzodiazepine receptor [1] = assay: in vivo inhibition of 3H-flunitrazepam binding to benzodiazepine receptors in mouse forebrain; details: mice, usually subcutaneous, 3H-flunitrazepam i.v. 15 min later, killed after further 20 min
Procedure: The ED50 value represents the dose (mg/kg) of a test substance which causes the specific binding of flunitrazepam to benzodiazepine receptors in a living brain to be reduced to 50% of the control value. Such an in vivo test is carried out as follows:
Groups of mice are injected with the test substance at different doses and usually subcutaneously. 15 minutes later ^3 H-flunitrazepam is administered intravenously to the mice and after further 20 minutes the mice are killed. Their forebrain membranes are removed and the radioactivity of these forebrain membranes is measured by scintillation counting. The ED50 value is determined from dose-response curves.

benzodiazepine receptor [2] = assay: displacement of 3H-flunitrazepam specific binding to benzodiazepine receptors (in vitro), rat forebrain membranes; details: rat forebrain suspension, 3H-flunitrazepam 1.0 nM, 0° C., 40-60 min, pH 7.1
Procedure: These sites are called benzodiazepine receptors. The displacement activity of the compounds of the invention has been determined by determining the IC50 value and the ED50 value.
The IC50 value represents the concentration which causes a displacement of 50% of the specific binding of ^3 H-flunitrazepam (1.0 nM, 0° C.) in samples comprising a total volume of 0.55 ml of a suspension of brain membrane, e.g from rats.
The displacement test is performed as follows:
0.50 ml of a suspension of non-treated rat forebrain in 25 mM KH2 PO4, pH=7.1 (5-10 mg tissue/sample) is incubated for 40-60 minutes at 0° C. together with ^3 H-diazepam (specific activity 87 Ci/mmol, 1.0 nM) or ^3 H-flunitrazepam (specific activity 87 Ci/mmol, 1.0 nM). After incubation, the suspension is filtered through "Whatman GF/C" glass fiber filters, the residue washed twice with cold buffer solution and the radioactivity measured by scintillation counting.
The test is repeated except that prior to the addition of the radioactive labelled benzodiazepine, a given amount or an excessive amount of the compound, the displacement capability of which is to be determined, is added. Based on the data obtained the IC50 value can be calculated.

| SMILES | Affinity for the benzodiazepine receptor, inhibition of 3H-flunitrazepam binding, IC50 (in vitro) (benzodiazepine receptor [2]) | inhibition of 3H-flunitrazepam binding, ED50 (in vivo) (benzodiazepine receptor [1]) |
| --- | --- | --- |
| COCc1c(-c2nc(C)no2)ncc2[nH]c3cccc(OCc4ccccc4)c3c12 | 0.4 ng/mL | 0.9 mg/kg |
| CCc1nc(-c2ncc3[nH]c4cccc(OCc5ccccc5)c4c3c2COC)no1 | 0.5 ng/mL | 1.0 mg/kg |
| CCc1noc(-c2ncc3[nH]c4cccc(OC5C=CCCC5)c4c3c2COC)n1 (stereo not drawn) | 0.4 ng/mL | 0.75 mg/kg |
| CCc1noc(-c2cc3c(cn2)[nH]c2ccc(C#CCN(C)C)cc23)n1 [3-[5-(3-ethyl-1,2,4-oxadiazole)-yl]-6-(3-dimethylaminopropargyl)-β-carboline] | 0.4 ng/mL | 7.9 mg/kg |

Now from value to compound, other results behind:

| Affinity for the benzodiazepine receptor, inhibition of 3H-flunitrazepam binding, IC50 (in vitro) (benzodiazepine receptor [2]) | SMILES | inhibition of 3H-flunitrazepam binding, ED50 (in vivo) (benzodiazepine receptor [1]) |
| --- | --- | --- |
| 0.26 ng/mL | CCOCc1cccc2[nH]c3cnc(-c4nc(CC)no4)c(C)c3c12 | 0.4 mg/kg |
| 0.5 ng/mL | CCc1noc(-c2ncc3[nH]c4cccc(OC(C)C)c4c3c2C)n1 | 0.4 mg/kg |
| 0.2 ng/mL | CCc1noc(-c2ncc3[nH]c4cccc(OC(C)C)c4c3c2COC)n1 | 0.2 mg/kg |
| 0.4 ng/mL | CCc1noc(-c2ncc3[nH]c4cccc(OC5CCC5)c4c3c2COC)n1 | 0.6 mg/kg |
| 0.3 ng/mL | CCCOc1cccc2[nH]c3cnc(-c4nc(CC)no4)c(COC)c3c12 [3-[5-(3-ethyl-1,2,4-oxadiazole)-yl]-4-methoxymethyl-5-propoxy-β-carboline] | 1.4 mg/kg |
